We go through 4 compounds from patent US10561638B2, “Methods for treating dependence” (Biotie Therapies, Inc., priority 2007, dated 2020).

SMILES strings stand for the structures. “Also recorded” adds a separate entry of the source.

Data set [1] deals with tissue noradrenaline and dopamine content. Kind of data set: Tissue catecholamines in SHRs after three oral doses 12 h apart. The data set is classed as in vivo, spontaneously hypertensive rats. The following applies: for increase in DA/NE ratio: 30 mg/kg; for dopamine vs vehicle / dopamine/norepinephrine ratio vs vehicle / norepinephrine vs vehicle: 30 mg/kg x3. Here is the method: Male SHRs (15-16 weeks old, Charles River, Wilmington, Mass., USA) were used in in vivo studies. On the day of the study, animals were weighed and randomly assigned to be dosed with either vehicle (control) or the appropriate dose of nepicastat (3, 10, 30 or 100 mg·kg^−1, po) or Compound B (30 mg·kg^−1, po) three consecutive times, twelve hours apart. At six hours after the third dose, the rats were anaesthetized with halothane, decapitated and tissues (cerebral cortex, mesenteric artery and left ventricle) were rapidly harvested, weighed, placed in iced perchloric acid (0.4 M), frozen in liquid nitrogen and stored at −70° C. until subsequent analysis. To quantify noradrenaline and dopamine concentrations, tissues were homogenized by brief sonication and centrifuged at 13,000 rpm for 30 minutes at 4° C. The supernatant, spiked with 3,4-dihydroxybenzylamine (internal standard), was assayed for noradrenaline and dopamine by HPLC using electrochemical detection.
Nepicastat was used in in vivo biochemical studies to study the effects in spontaneously hypertensive rats (SHRs) and normal beagle dogs. On the day of the study, the animals were weighed and randomly assigned to receive either placebo (vehicle) or the appropriate dose of nepicastat. Each rat was dosed orally three times, 12 h apart, beginning in the morning. At 6 h after the third dose, the rats were anesthetized with halothane, decapitated, and the tissues (cerebral cortex, mesenteric artery and left ventricle) were rapidly harvested, weighed, placed in iced 0.4 M perchloric acid, frozen in liquid nitrogen and stored at −70° C. until analysis. Tissue NE and DA concentrations were assayed by HPLC using electrochemical detection. Male beagle dogs (10-16 kg, Marshall Farms USA Inc, North Rose, N.Y.) were used in the study. On the day of the study, dogs were randomly assigned to receive either placebo (empty capsule) or the appropriate dose of nepicastat. Each dog was dosed twice a day for 4.5 days. 6 h after the first dose on day 5, the dogs were euthanized with pentobarbital and the tissues (cerebral cortex. renal artery, left ventricle) harvested, weighed, placed in iced 0.4 M perchloric acid, frozen in liquid nitrogen and stored at −70° C. until analysis. Tissue NE and DA concentrations were assayed by HPLC using electrochemical detection.
Fifteen to sixteen week old male spontaneously hypertensive rats (SHRs) (Charles River Labs) were allowed food and water ad libitum. Animals were weighed and randomly assigned to one of the following treatment groups: 1) distilled water vehicle (dH2O), or nepicastat at 3, 10, 30, and 100 mg/kg, 2) Compound B at 30 mg/kg in distilled water, or 3) PEG 400:dH2O vehicle or SKF-102698 at 30 mg/kg. Each rat was dosed orally (p.o., using a gavage needle) three times 12 hours apart, beginning in the morning. At six hours after the third dose rats were anesthetized with halothane, decapitated, and the cortex, mesenteric artery, and left ventricle were rapidly harvested, weighed, placed in iced 0.4 M perchioric acid, frozen in liquid nitrogen, and stored at −70° C. Tissue dopamine and norepinephrine concentrations were assayed by high performance liquid chromatography and electrochemical detection.
Four series of statistical analyses were performed. The first series compared the rats treated with various doses of nepicastat, and Compound B at 30 mg/kg to the vehicle control animals. A nonparametric one-way analysis of variance (ANOVA) with factor Dose and blocking factor Day was performed for each tissue and strain separately. […] Pairwise analysis between treated and controls at each dose were carried out using Dunnett's test to control the experiment-wise error rate. The second statistical test compared SKF-102698 to the PEG-dH2O vehicle treated group using a nonparametric t-test. The third statistical test compared Compound B to nepicastat at doses of 30 mg/kg using a nonparametric t-test.

In the next data set the test system is rats. Kind of data set: Chronic (10 day) dosing behavioral tests in rats. Here is the method: The effects of chronic dosing of nepicastat in rats were examined. Between three and thirteen days prior to the first dosing day the rats were placed inside the startle apparatus and after a five minute acclimation period they were presented with a 118 dB noise burst on average once a minute (a variable inter-trial interval ranging between 30 and 90 seconds will be used) for 20 minutes. The startle responses were measured and a mean for the last twenty startle response was calculated for each rat.
The following behavioral tests were administered during and after chronic dosing; body core temperature, motor activity, acoustic startle reactivity, and pre-pulse inhibition of acoustic startle.
The animals were tested in an enclosed room with a white noise generator running Motor activity tests were conducted immediately after the body core temperature reading taken on dosing day ten (about 3 hours and 35 minutes after the morning daily dose of nepicastat, and SKF-102698, and 20 minutes prior to the daily administration of clonidine and d-amphetamine on dosing day ten). Motor activity tests were run for one hour. A diagnostic program was run on each of the motor activity chambers prior to each test session to assure that the photo beams and light sensors were operating properly. […] D-amphetamine was used as the positive control for this assay.
Rat body core temperatures were obtained by inserting the rectal probe 2 cm into the colon of each rat. Each rat's body core temperature was measured three times and the average of the three reading was calculated. Body core temperature readings were obtained immediately prior to the ten day chronic dosing schedule (to obtain a baseline), and three and half hour after the morning daily dose of nepicastat, and SKF-102698, and 15 minutes prior to the daily administration of clonidine and d-amphetamine, on dosing days one, five and ten. […] Both clonidine (an alpha2 agonist), and d-amphetamine (a dopamine releaser) were used as the positive controls for this assay.
Acoustic startle reactivity (a series of muscle contractions elicited by an intense burst of noise with a rapid onset), and pre-pulse inhibition (sensorimotor gating measured by analyzing any decrease in startle reactivity which occurs when a startling stimulus is immediately preceded by a non startling stimulus) were both measured in eight SR-Lab (San Diego Instruments, San Diego, Calif.) test stations. The rats were placed individually in a Plexiglas cylinder (10 cm diameter) which was housed in a ventilated sound-attenuating enclosure. Acoustic noise bursts (a broad band noise with a rise time and fall time of 1 msec) were presented via a speaker mounted 30 cm above the animal. Also, these speakers produced a 68 dB level of background noise throughout all test sessions. A piezoelectric accelerometer attached below the plexiglass cylinder transduced the subject's movement into a voltage which was then rectified and digitized (on a scale from 0 to 4095) by a PC computer equipped with SR-Lab software and interface assembly. A decibel meter was used to calibrate the speakers in each of the eight test station to ±1% of the mean. Additionally, a SR-Lab calibrating instrument was used to calibrate each of the eight startle detection apparatuses to ±2% of the mean. Startle reactivity and pre-pulse inhibition tests were run concurrently immediately alter the motor activity test (about 4 hours and 40 minutes after the morning daily injection of nepicastat, and SKF-102698, and 10 minutes after a supplemental administration of clonidine and d-amphetamine on dosing day ten).

A further data set relates to SHRs. Kind of data set: 30-day radio-telemetry study in SHRs.
Data set [2] has as its system short-term or working memory in rats. Kind of data set: Delayed-matching-to-position (DMTP) test. The data set is classed as in vivo, Sprague Dawley rats. The procedure: In the present DMTP study, rats were trained to remember the position of a lever across a scheduled delay of either 0, 8, 16 or 32 s in order to earn food reward. […] Another group of rats received only vehicle treatment throughout the experiment. […] The dependent measures in the present study included percentage of correct choices, the latency to make choice responses and the number of trials which the animals were able to complete during the 70 min test sessions. Changes in the former measure may indicate changes in memory and/or attentional function whereas changes in the latter two measures may be indicative of other non-cognitive effects of the drugs. Matching to position training began next. This and all subsequent training was conducted with the partitions fitted into the operant boxes. The sessions were initially 50 minutes long. Rats were placed in the operant box and the session began when the houselight was illuminated. Following a 30 s intertrial interval (ITI), one of the two levers (the sample lever) was inserted into the chamber. The lever remained inserted into the chamber until a lever-press response occurred. […] As soon as the magazine flap was pressed the magazine light was extinguished and both levers were inserted. […] The magazine light remained on until the flap was pressed. […] A 30 s ITI was initiated before the commencement of a new trial. The lever inserted as the sample lever was semi-randomly determined such that the right and lefthand levers were presented as the sample lever 8 times in a block of 16 trials. Following 24 sessions, the animals were performing the matching to position task with a high degree of accuracy. On Session 25 a variable delay interval was interposed between the depression of the sample lever and presentation of the levers on the choice trial. After a response to the sample lever, the choice levers were inserted following the first flap press occurring after either a 0 s (immediate), 4, 8 or 16 s delay. The order of the four types of trials (0, 4, 8 or 16 s delay) was semi-randomly determined with the constraint that in a 16 trial block, each delay occurred 4 times; twice on a left trial and twice on a right trial. […] The same trial was reinstated following the end of the ITI. From Session 25 onward the time-out period following incorrect choices was omitted and the session length was increased to 70 minutes. […] Due to poor performance at the 64 s delay, however, this delay was not used in any further sessions. On Session 59, delays of 0, 8, 16 and 32 s were used. These delays were used in all subsequent sessions. Only 51 of the 56 rats completed more than 24 trials (correction plus non-correction) during Session 59. These rats were selected and semi-randomly assigned to the following 7 groups such that the groups were matched on performance (percent correct, response latency and number of trials completed): […] Thus, the drug treatments administered to the seven groups during the 11 consecutive days of the present experiment were: The data collected and analyzed in the present DMTP study include 1) the percentage of correct responses; 2) the latency between performance of a response to the sample lever and the performance of the choice response and 3) the total number of correction and non-correction trials completed. The former two dependent measures were collected for the non-correction trials only. […] Two-way analysis of variance (ANOVA) with drug treatment as the between-subjects factor and delay (0, 8, 16 or 32 s) as the within-subjects factor was used to analyze percentage of correct choices and response latency. These analyses were conducted separately for each block of data. Significant interactions were followed by a one-way ANOVA which was conducted at each delay. A significant main effect from a one-way ANOVA was followed by a two-tailed Dunnett's t-test. One-way ANOVA followed by a post hoc Dunnett's test, when appropriate, was used to analyze the mean number of trials completed. […]

Take `NCc1c[nH]c(=S)n1[C@@H]1CCc2c(F)cc(F)cc2C1` [Compound B, (R)-5-Aminomethyl-1-(5,7-difluoro-1,2,3,4-tetrahydronaphth-2-yl)-2,3-dihydro-2-thioxo-1H-imidazole]: in data set [1] (cerebral cortex), the “increase in DA/NE ratio” value amounted to 1.1 fold, the dopamine vs vehicle entry was “significant increase”, the “dopamine/norepinephrine ratio vs vehicle” value is given as “no effect” and the norepinephrine vs vehicle entry is “significant increase”. Besides, in data set [1] (left ventricle), the “increase in DA/NE ratio” value worked out at 3.5 fold, the dopamine vs vehicle entry is on record as “significant increase”, the “dopamine/norepinephrine ratio vs vehicle” value is given as “significant increase” and the norepinephrine vs vehicle entry is “did not significantly lower”. For the same compound, in data set [1] (mesenteric artery), the “increase in DA/NE ratio” value was 2.6 fold, the dopamine vs vehicle entry is recorded as “significant increase”, the “dopamine/norepinephrine ratio vs vehicle” value is given as “significant increase” and the norepinephrine vs vehicle entry is given as “did not significantly lower”.

For `C[C@H](N)Cc1ccccc1` [d-amphetamine], the “change in body weight from pre-dose” value in the data set with rats (10 days) is given as “significantly smaller change in body weight”. Moreover, in the data set on rats (dosing day ten), the pre-pulse inhibition result is on record as “Neither d-amphetamine nor SKF-102698 was significantly different”. Moreover, the “locomotor activity vs vehicle” value in the data set on rats (dosing day ten, nepicastat 5, 15, 50, SKF-102698 50 mg/kg bid, clonidine 20 μg/kg, d-amphetamine 2 mg/kg bid) is “significantly higher locomotor activity”. The body core temperature entry with rats (dosing days one, five, ten) was “significantly increasing body core temperature on day one”.

Take `CCOC(=O)[C@H](CCc1ccccc1)N[C@@H](C)C(=O)N1CCC[C@H]1C(=O)O` [enalapril, reference compound]: in the data set on SHRs (enalapril 1 mg/kg), the body weights result is recorded as “slightly decreased body weight”, the heart rate entry is “did not affect HR” and the left ventricular mass entry is recorded as “did not regress the hypertrophy”. In addition, the “antihypertensive effect of mono-administration” value in the data set on SHRs (enalapril 1 mg/kg or nepicastat 30 mg/kg (Series III)) was “failed to lower blood pressure; also recorded: only a small antihypertensive effect; also recorded: did not induce significant antihypertensive effects”. For the same compound, in the data set with SHRs (enalapril 10 mg/kg), the “antihypertensive effect throughout the study” value is −20 to −30 mmHg; the body weights result is “significantly decreased (p<0.05) or had no effect”; the heart rate result is on record as “transient small tachycardia”; the left ventricular mass result is recorded as “significantly reduced left ventricular mass in Series II, but not in Series I”. Also, the “maximal decrease in MBP” value in the data set on SHRs (enalapril 10 mg/kg, within 1 hr after dosing on day 5) is reported as −29 mmHg.

On to `CN1[C@@H]2C[C@@H](OC(=O)[C@H](CO)c3ccccc3)C[C@H]1[C@@H]1O[C@@H]12` [scopolamine, Scopolamine HBr, reference compound], for which the “number of trials completed” value in data set [2] (all scopolamine treated groups) is on record as “significantly reduced”. In addition, the “percentage of correct choices vs Vehicle/Vehicle” value in data set [2] (scopolamine HBr 0.1 mg/kg s.c.) was “significantly impaired percentage of correct choices”.
